“And” between values parts separate entries of the source, which are not always exact repeats. Equal entries are not always repeated.
Molecular target: T1, CHK1 (Homo sapiens, UniProt O14757)
T1 sequence (O14757 1-476): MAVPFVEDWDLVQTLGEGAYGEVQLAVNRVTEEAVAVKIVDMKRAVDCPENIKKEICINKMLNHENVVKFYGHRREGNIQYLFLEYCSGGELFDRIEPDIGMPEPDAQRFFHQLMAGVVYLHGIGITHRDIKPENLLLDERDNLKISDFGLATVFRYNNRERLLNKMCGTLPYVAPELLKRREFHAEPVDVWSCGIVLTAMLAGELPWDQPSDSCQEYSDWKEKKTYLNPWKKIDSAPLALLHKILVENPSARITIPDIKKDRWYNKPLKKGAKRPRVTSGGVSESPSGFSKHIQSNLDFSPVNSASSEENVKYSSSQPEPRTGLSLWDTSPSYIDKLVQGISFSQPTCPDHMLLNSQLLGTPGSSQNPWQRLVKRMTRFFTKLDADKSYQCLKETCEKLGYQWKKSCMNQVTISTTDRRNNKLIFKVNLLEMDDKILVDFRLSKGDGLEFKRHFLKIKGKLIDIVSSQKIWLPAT
Test: CHK1 kinase function inhibition assay (DELFIA, phosphorylation of a CDC25C peptide)
Format: biochemical
Conditions: CHK1 1 nM, ATP 30 μM, 30 minutes at room temperature
How it was run: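 Phosphorylation of a CDC25C peptide detected by DELFIA with a phospho-specific antibody. Kinase reaction ran 30 min at room temperature, was stopped with EDTA buffer, then captured on neutravidin-coated plates for 1 h before time-resolved fluorescence read-out with enhancement solution.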

**Q.** For `N#Cc1cnc(Nc2cc(NCC3CCNCC3)c(Cl)cn2)cn1` [Compound Y-124, 5-(5-chloro-4-(piperidin-4-ylmethylamino)pyridin-2-ylamino)pyrazine-2-carbonitrile], which IC50 is on record?
**A.** ≤ 100 nM

**Q.** How did the IC50 turn out when `COCCOc1cccc(-c2cnc(Nc3cnc(C#N)cn3)cc2NC2CCN(C)CC2)c1` [Compound Y-118, 5-(5-(3-(2-methoxyethoxy)phenyl)-4-(1-methylpiperidin-4-ylamino)pyridin-2-ylamino)pyrazine-2-carbonitrile] was run?
**A.** ≤ 100 nM

**Q.** With `COc1ccc(CC(=O)Nc2cnc(Nc3cnc(C#N)cn3)cc2NCC2CCNCC2)cc1` [Compound Y-013, N-(6-(5-Cyanopyrazin-2-ylamino)-4-(piperidin-4-ylmethylamino)pyridin-3-yl)-2-(4-methoxyphenyl)acetamide] as the compound, how does the IC50 read?
**A.** 1000 to 10000 nM

**Q.** For `COc1ccc(-c2cnc(Nc3cnc(C#N)cn3)cc2NCCC2CNCCO2)cc1` (stereo not drawn) [Compound Y-137, 5-(5-(4-methoxyphenyl)-4-(2-(morpholin-2-yl)ethylamino)pyridin-2-ylamino)pyrazine-2-carbonitrile], which IC50 is on record?
**A.** ≤ 100 nM

**Q.** How did the IC50 turn out when `Cc1ncsc1CCC(=O)Nc1cnc(Nc2cnc(C#N)cn2)cc1NCC1CCCNC1` (stereo not drawn) [Compound Y-054, N-(6-(5-Cyanopyrazin-2-ylamino)-4-(piperidin-3-ylmethylamino)pyridin-3-yl)-3-(4-methylthiazol-5-yl)propanamide] was run?
**A.** 1000 to 10000 nM

**Q.** For `COc1cccc(NC(=O)c2cnc(Nc3cnc(C#N)cn3)cc2NCC2CCNCC2)c1` [Compound Y-096, 6-(5-Cyanopyrazin-2-ylamino)-N-(3-methoxyphenyl)-4-(piperidin-4-ylmethylamino)nicotinamide], which IC50 is on record?
**A.** ≤ 100 nM

**Q.** For `CN(C)CCNc1cc(Nc2cnc(C#N)cn2)ncc1N` [Compound Y-004, 5-(5-Amino-4-(2-(dimethylamino)ethylamino)pyridin-2-ylamino)pyrazine-2-carbonitrile], which IC50 is on record?
**A.** 1000 to 10000 nM

**Q.** How did the IC50 turn out when `N#Cc1cnc(Nc2cc(NCC3CCNCC3)c(C(=O)Nc3ccc(OCCN4CCOCC4)cc3)cn2)cn1` [Compound Y-098, 6-(5-Cyanopyrazin-2-ylamino)-N-(4-(2-morpholinoethoxy)phenyl)-4-(piperidin-4-ylmethylamino)nicotinamide] was run?
**A.** ≤ 100 nM

**Q.** Which IC50 does the source give for `N#Cc1cnc(Nc2cc(N[C@H]3CCNC3)ncn2)cn1` [Compound Z-024, (S)-5-(6-(Pyrrolidin-3-ylamino)pyrimidin-4-ylamino)pyrazine-2-carbonitrile] here?
**A.** 1000 to 10000 nM

**Q.** With `N#Cc1cnc(Nc2cc(NC3CCNCC3)ncn2)cn1` [Compound Z-012, 5-(6-(Piperidin-4-ylamino)pyrimidin-4-ylamino)pyrazine-2-carbonitrile] as the compound, how does the IC50 read?
**A.** ≤ 1000 nM and 100 to 1000 nM

**Q.** Which IC50 does the source give for `COc1ccc(-c2cnc(Nc3cnc(C#N)cn3)cc2NCC2(F)CCNCC2)cc1` [Compound Y-136, 5-(4-((4-Fluoropiperidin-4-yl)methylamino)-5-(4-methoxyphenyl)pyridin-2-ylamino)pyrazine-2-carbonitrile] here?
**A.** ≤ 100 nM

**Q.** How did the IC50 turn out when `N#Cc1cnc(Nc2cc(NCC3CCCNC3)c(-n3ccc(C(=O)NCCO)c3)cn2)cn1` (stereo not drawn) [Compound Y-066, 1-(6-(5-Cyanopyrazin-2-ylamino)-4-(piperidin-3-ylmethylamino)pyridin-3-yl)-N-(2-hydroxyethyl)-1H-pyrrole-3-carboxamide] was run?
**A.** 100 to 1000 nM

**Q.** Which IC50 does the source give for `N#Cc1cnc(Nc2cc(NCCCCO)ncn2)cn1` [Compound Z-041, 5-(6-(4-Hydroxybutylamino)pyrimidin-4-ylamino)pyrazine-2-carbonitrile] here?
**A.** 1000 to 10000 nM

**Q.** `N#Cc1cnc(Nc2cc(N3CCNCC3)ncn2)cn1` [Compound Z-018, 5-(6-(piperazin-1-yl)pyrimidin-4-ylamino)pyrazine-2-carbonitrile] was tested. Which IC50 did it give?
**A.** 1000 to 10000 nM

**Q.** `CN1CCC(Nc2cc(Nc3cnc(C#N)cn3)ncc2[N+](=O)[O-])CC1` [Compound Y-040, 5-(4-(1-Methylpiperidin-4-ylamino)-5-nitropyridin-2-ylamino)pyrazine-2-carbonitrile] was tested. Which IC50 did it give?
**A.** ≤ 100 nM

**Q.** With `N#Cc1cnc(Nc2cc(NCCC[C@@H](N)C(=O)Nc3ccccc3)ncn2)cn1` [Compound Z-025, (R)-2-Amino-5-(6-(5-cyanopyrazin-2-ylamino)pyrimidin-4-ylamino)-N-phenylpentanamide] as the compound, how does the IC50 read?
**A.** ≤ 1000 nM and 100 to 1000 nM

**Q.** `COc1ccc(NC(=O)c2cnc(Nc3cnc(C#N)cn3)cc2NCC2CCNCC2)cc1` [Compound Y-095, 6-(5-Cyanopyrazin-2-ylamino)-N-(4-methoxyphenyl)-4-(piperidin-4-ylmethylamino)nicotinamide] was tested. Which IC50 did it give?
**A.** ≤ 100 nM

**Q.** For `N#Cc1cnc(Nc2cc(NCC3CCNCC3)c(C#CCO)cn2)cn1` [Compound Y-145, 5-(5-(3-Hydroxyprop-1-ynyl)-4-(piperidin-4-ylmethylamino)pyridin-2-ylamino)pyrazine-2-carbonitrile], which IC50 is on record?
**A.** ≤ 100 nM

**Q.** With `N#Cc1cnc(Nc2cc(NCC[C@H](N)C(=O)Nc3ccccc3)ncn2)cn1` [Compound Z-026, (S)-2-Amino-4-(6-(5-cyanopyrazin-2-ylamino)pyrimidin-4-ylamino)-N-phenylbutanamide] as the compound, how does the IC50 read?
**A.** ≤ 1000 nM and 100 to 1000 nM

**Q.** Which IC50 does the source give for `COc1ccc(-c2cnc(Nc3cnc(C#N)cn3)cc2NC2CCNCC2)cc1` [Compound Y-122, 5-(5-(4-Methoxyphenyl)-4-(piperidin-4-ylamino)pyridin-2-ylamino)pyrazine-2-carbonitrile] here?
**A.** ≤ 100 nM

**Q.** For `COC/C=C/c1cnc(Nc2cnc(C#N)cn2)cc1NCC1CCNCC1` [Compound Y-139, (E)-5-(5-(3-Methoxyprop-1-enyl)-4-(piperidin-4-ylmethylamino)pyridin-2-ylamino)pyrazine-2-carbonitrile], which IC50 is on record?
**A.** ≤ 100 nM

**Q.** How did the IC50 turn out when `N#Cc1cnc(Nc2cc(NCC3CCNCC3)c(C(=O)Nc3cccc(N4CCOCC4)c3)cn2)cn1` [Compound Y-099, 6-(5-Cyanopyrazin-2-ylamino)-N-(3-morpholinophenyl)-4-(piperidin-4-ylmethylamino)nicotinamide] was run?
**A.** ≤ 100 nM

**Q.** Which IC50 does the source give for `COC(=O)c1cnc(Nc2cnc(C#N)cn2)cc1N(C)C1CCN(C)CC1` [Compound Y-070, Methyl 6-(5-cyanopyrazin-2-ylamino)-4-(methyl(1-methylpiperidin-4-yl)amino)nicotinate] here?
**A.** ≤ 100 nM

**Q.** `N#Cc1cnc(Nc2cc(N[C@@H]3CCCNC3)c(-n3cccc3)cn2)cn1` [Compound Y-057, (R)-5-(4-(Piperidin-3-ylamino)-5-(1H-pyrrol-1-yl)pyridin-2-ylamino)pyrazine-2-carbonitrile] was tested. Which IC50 did it give?
**A.** 100 to 1000 nM

**Q.** Which IC50 does the source give for `COC(=O)c1cnc(Nc2cnc(C#N)cn2)cc1NCC1(C)CCNCC1` [Compound Y-026, Methyl 6-(5-cyanopyrazin-2-ylamino)-4-((4-methylpiperidin-4-yl)methylamino)nicotinate] here?
**A.** ≤ 100 nM

**Q.** How did the IC50 turn out when `N#Cc1cnc(Nc2cc(NCC3CCNCC3)c(C(=O)Nc3ccc(N4CCOCC4)cc3)cn2)cn1` [Compound Y-100, 6-(5-Cyanopyrazin-2-ylamino)-N-(4-morpholinophenyl)-4-(piperidin-4-ylmethylamino)nicotinamide] was run?
**A.** ≤ 100 nM

**Q.** With `CC(C)(CO)Nc1cc(Nc2cnc(C#N)cn2)ncn1` [Compound Z-039, 5-(6-(1-Hydroxy-2-methylpropan-2-ylamino)pyrimidin-4-ylamino)pyrazine-2-carbonitrile] as the compound, how does the IC50 read?
**A.** ≤ 1000 nM and 100 to 1000 nM

**Q.** Which IC50 does the source give for `COCCN(C)C(=O)c1cnc(Nc2cnc(C#N)cn2)cc1NCC1CCNCC1` [Compound Y-091, 6-(5-Cyanopyrazin-2-ylamino)-N-(2-methoxyethyl)-N-methyl-4-(piperidin-4-ylmethylamino)nicotinamide] here?
**A.** 100 to 1000 nM

**Q.** How did the IC50 turn out when `COC(=O)c1cnc(Nc2cnc(C#N)cn2)cc1NCC1(C)COC1` [Compound Y-031, Methyl 6-(5-cyanopyrazin-2-ylamino)-4-((3-methyloxetan-3-yl)methylamino)nicotinate] was run?
**A.** ≤ 1000 nM and 100 to 1000 nM

**Q.** Which IC50 does the source give for `N#Cc1cnc(Nc2cc(NCC3CCCNC3)c(N3CCCC3)cn2)cn1` (stereo not drawn) [Compound Y-059, 5-(4-(Piperidin-3-ylmethylamino)-5-(pyrrolidin-1-yl)pyridin-2-ylamino)pyrazine-2-carbonitrile] here?
**A.** ≤ 100 nM

**Q.** With `CN(C)CC(=O)Nc1cnc(Nc2cnc(C#N)cn2)cc1N[C@H]1CCCNC1` [Compound Y-046, (S)—N-(6-(5-Cyanopyrazin-2-ylamino)-4-(piperidin-3-ylamino)pyridin-3-yl)-2-(dimethylamino)acetamide] as the compound, how does the IC50 read?
**A.** 1000 to 10000 nM

**Q.** Which IC50 does the source give for `N#Cc1cnc(Nc2cc(NC3CCNCC3)c(N)cn2)cn1` [Compound Y-005, 5-(5-Amino-4-(piperidin-4-ylamino)pyridin-2-ylamino)pyrazine-2-carbonitrile] here?
**A.** ≤ 1000 nM and 100 to 1000 nM

**Q.** For `CN1CCC(N(C)c2cc(Nc3cnc(C#N)cn3)ncc2-c2ccccc2)CC1` [Compound Y-113, 5-(4-(methyl(1-methylpiperidin-4-yl)amino)-5-phenylpyridin-2-ylamino)pyrazine-2-carbonitrile], which IC50 is on record?
**A.** 100 to 1000 nM
